This is an account of results in patent US7060725B2, “Substituted sulfamate anticonvulsant derivatives” (Janssen Pharmaceutica N.V., priority 2002, dated 2006).

The subject of test [1] is maximal electroshock seizure (MES-induced seizure spread). Nature of the test: Maximal electroshock seizure (MES) test, rat. It counts as in vivo, rats. As for the experimental part: Anticonvulsant activity was determined using the standard MES model for generalized tonic-clonic seizures (Swinyard E A, Woodhead J H, White H S, Franklin M R, In: […], Meldrum […], Dreifuss F E eds. Antiepileptic drugs. New York: Raven Press, 1989:85-102). An electric stimulus of 0.2 sec duration, 60 Hz, 50 mA in mice, 150 mA in rats, was delivered via corneal electrodes primed with an electrolyte solution containing an anesthetic agent (0.5% tetracaine hydrochloride in 0.9% saline). Mice or rats were randomly selected into control and test groups. The animals were dosed with vehicle or test compound, at varying concentrations. Mice were subjected to the electrical stimulus at 30 minutes and 4 hours following administration of test compound. […] Abolition of the hind limb tonic extensor component was an indication of the test compound's ability to inhibit MES-induced seizure spread. […] A probit analysis (Finney D J. Probit Analysis. Cambridge, England: Cambridge University Press, 1971) was used to calculate the ED50. Following the rat procedure described above, representative compounds of the instant invention were tested for biological activity in the rat, with results as listed in Table 6 and 7. Rat activity is listed as number of rats active/total number of rats tested @ time after administration of the test compound.

Test [2] has the same test system. Nature of the test: Maximal electroshock seizure (MES) test, mouse. Format: in vivo, mice. The procedure: Anticonvulsant activity was determined using the standard MES model for generalized tonic-clonic seizures (Swinyard E A, Woodhead J H, White H S, Franklin M R, In: Levy R H, Mattson R H, Meldrum B S, Penry J K, Dreifuss F E eds. Antiepileptic drugs. New York: Raven Press, 1989:85–102).
An electric stimulus of 0.2 sec duration, 60 Hz, 50 mA in mice, 150 mA in rats, was delivered via corneal electrodes primed with an electrolyte solution containing an anesthetic agent (0.5% tetracaine hydrochloride in 0.9% saline).
Mice or rats were randomly selected into control and test groups. The animals were dosed with vehicle or test compound, at varying concentrations. […] Rats were subjected to electrical stimulus at time intervals between 15 minutes and 4 hours following administration of test compound. Abolition of the hind limb tonic extensor component was an indication of the test compound's ability to inhibit MES-induced seizure spread.
The ED50 (the calculated dose required to block the hindlimb tonic-extensor component of the maximal electroshock seizure in 50% of the animals tested) was calculated. A probit analysis (Finney D J. Probit Analysis. Cambridge, England: Cambridge University Press, 1971) was used to calculate the ED50.
Following the mouse procedure described above, representative compounds of the instant invention were tested for biological activity in the mouse, with results as listed in Table 5. Mouse activity is listed as number of mice active/total number of mice tested @ time after administration of the test compound.
For orientation: In the maximal electroshock model the usual endpoint is tonic extension of the hind limbs.

Setting [3] is: 300 mg/kg, @ 0.5 hrs after administration.
[4] abbreviates: 300 mg/kg, @ 4 hrs after administration.
[5] abbreviates: 100 mg/kg, @ 0.5 hrs after administration.
[6] abbreviates: 100 mg/kg, @ 4 hrs after administration.

In the case of `CC1(C)O[C@@H]2[C@@H](CO[C@@]3(COS(=O)(=O)[N-]C(=O)OCc4ccccc4)OC(C)(C)O[C@@H]23)O1.[Na+]` [Compound 17, N-(benzyloxy-carbonyl)-2,3:4,5-bis-O-(1-methylethylidene)-β-D-fructopyranose sulfamate sodium salt], the ED50 in test [1] (@ 4 hrs) is 10.37 @ 4 hrs, m/k; in test [1] (@ 6 hrs), 3.26 @ 6 hrs m/k. For the same compound, the “Rat Activity (oral) (number of rats active/total number of rats tested)” value in test [1] (30 mg/kg, @ 0.25 hrs) is 1/4 @ 0.25 hrs; in test [1] (30 mg/kg, @ 0.5 hrs), 2/4 @ 0.5 hrs; in test [1] (30 mg/kg, @ 1 hr), 1/4 @ 1 hr; in test [1] (30 mg/kg, @ 2 hrs) it was 4/4 @ 2 hrs; in test [1] (30 mg/kg, @ 4 hrs) it was 4/4 @ 4 hrs.

As to `CONS(=O)(=O)OCC12OCC3OC(C)(C)OC3C1OC(C)(C)O2` (stereo not drawn) [Compound 10], the figures for the “Mouse Activity (number of mice active/total number of mice tested)” value in test [2] (setting [3]) and in test [2] (setting [4]) were 1/1 @ 0.5 hrs and 1/1 @ 4 hrs, respectively. Also, the “Mouse Activity” value in test [2] (dosage 30, 100 mg/kg) was “No activity”.

For `CON(C)S(=O)(=O)OCC12OCC3OC(C)(C)OC3C1OC(C)(C)O2` (stereo not drawn) [Compound 11], in test [1] (@ 4 hrs), the ED50 was 26.75 @ 4 hrs m/k. For the same compound, the “Rat Activity (oral) (number of rats active/total number of rats tested)” value in test [1] (30 mg/kg, @ 0.5 hrs) is reported as 2/3 @ 0.5 hrs; in test [1] (30 mg/kg, @ 2 hrs), 2/3 @ 2 hrs; in test [1] (30 mg/kg, @ 4 hrs) it was 2/3 @ 4 hrs. Moreover, the “Mouse Activity” value in test [2] (dosage 30, 100, 300 mg/kg) was “No activity”.

Turning to `CC1(C)OC2COC3(COS(=O)(=O)NCCBr)OC(C)(C)OC3C2O1` (stereo not drawn) [Compound 3], the “Rat Activity (oral) (number of rats active/total number of rats tested)” value in test [1] (30 mg/kg, @ 1 hr) is recorded as 1/4 @ 1 hr; in test [1] (30 mg/kg, @ 2 hrs), 2/4 @ 2 hrs. In test [2] (dosage 30, 100, 300 mg/kg), the “Mouse Activity” value is listed as “No Activity”.

As to `CCOC(=O)CCNS(=O)(=O)OCC12OCC3OC(C)(C)OC3C1OC(C)(C)O2` (stereo not drawn) [Compound 4], the “Rat Activity (oral) (number of rats active/total number of rats tested)” value in test [1] (30 mg/kg, @ 1 hr) is listed as 1/4 @ 1 hr. The “Mouse Activity” value in test [2] (dosage 30, 100, 300 mg/kg) is “No Activity”.

In the case of `CC1(C)OC2COC3(COS(=O)(=O)NC(=O)O[Si](c4ccccc4)(c4ccccc4)c4ccccc4)OC(C)(C)OC3C2O1` (stereo not drawn) [Compound 13], the “Rat Activity (oral) (number of rats active/total number of rats tested)” value was 1/4 @ 0.5 hrs in test [1] (30 mg/kg, @ 0.5 hrs) and 1/4 @ 1 hr in test [1] (30 mg/kg, @ 1 hr). Besides, the “Mouse Activity” value in test [2] (dosage 30, 100, 300 mg/kg) was “No activity”.

`CC(=O)[N-]S(=O)(=O)OC[C@@]12OC[C@H]3OC(C)(C)OC3[C@@H]1OC(C)(C)O2.[Na+]` (stereo partly drawn) [Compound 18, N-acetyl-2,3:4,5-bis-O-(1-methylethylidene)-β-D-fructopyranose sulfamate sodium salt]: the “Rat Activity (oral) (number of rats active/total number of rats tested)” value in test [1] (30 mg/kg, @ 0.25 hrs) is 1/4 @ 0.25 hrs; in test [1] (30 mg/kg, @ 0.5 hrs) it was 1/4 @ 0.5 hrs; in test [1] (30 mg/kg, @ 2 hrs), 1/4 @ 2 hrs; in test [1] (30 mg/kg, @ 4 hrs), 3/4 @ 4 hrs. Further, the “Mouse Activity (number of mice active/total number of mice tested)” value is reported as 1/3 @ 0.5 hrs in test [2] (setting [5]), 2/3 @ 4 hrs in test [2] (setting [6]), 1/1 @ 0.5 hrs in test [2] (setting [3]) and 1/1 @ 4 hrs in test [2] (setting [4]). In addition, the “Mouse Activity” value in test [2] (dosage 30 mg/kg) was “No activity”.

For `CC1(C)OC2COC3(COS(=O)(=O)N[Si](c4ccccc4)(c4ccccc4)c4ccccc4)OC(C)(C)OC3C2O1` (stereo not drawn) [Compound 6], the “Mouse Activity” value in test [2] (dosage 30, 100, 300 mg/kg) was “No activity”.

As for `CC1(C)OC2[C@@H](CO[C@@]3(COS(=O)(=O)NC(=O)OCc4ccccc4)OC(C)(C)O[C@@H]23)O1` (stereo partly drawn) [Compound 15, N-benzyloxycarbonyl-2,3:4,5-bis-O-(1-methylethylidene)-β-D-fructopyranose sulfamate], the “Mouse Activity (number of mice active/total number of mice tested)” value in test [2] (100 mg/kg, @ 1 hr after administration) is listed as 3/3 @ 1 hr; in test [2] (setting [6]) it was 2/3 @ 4 hrs; in test [2] (setting [3]) it was 1/1 @ 0.5 hrs; in test [2] (setting [4]), 1/1 @ 4 hrs. For the same compound, in test [2] (dosage 30 mg/kg), the “Mouse Activity” value is given as “No activity”.

Consider `CC(C)(C)OC(=O)NS(=O)(=O)OC[C@@]12OC[C@H]3OC(C)(C)OC3[C@@H]1OC(C)(C)O2` (stereo partly drawn) [Compound 14, N-t-butoxycarbonyl-2,3:4,5-bis-O-(1-methylethylidene)-β-D-fructopyranose sulfamate], for which the “Rat Activity (oral) (number of rats active/total number of rats tested)” value is listed as 3/4 @ 2 hrs in test [1] (30 mg/kg, @ 2 hrs) and 4/4 @ 4 hrs in test [1] (30 mg/kg, @ 4 hrs). Moreover, the “Mouse Activity” value in test [2] (dosage 30, 100, 300 mg/kg) was “No activity”.

On to `CC1(C)OC2[C@@H](CO[C@@]3(COS(=O)(=O)NS(=O)(=O)C(F)(F)F)OC(C)(C)O[C@@H]23)O1` (stereo partly drawn) [Compound 30, N-trifluoromethylsulfonyl-2,3:4,5-bis-O-(1-methylethylidene)-β-D-fructopyranose sulfamate], for which the ED50 in test [1] (@ 4 hrs) is reported as 2.38 @ 4 hrs m/k. In addition, the “Rat Activity (oral) (number of rats active/total number of rats tested)” value is given as 3/4 @ 0.25 hrs in test [1] (30 mg/kg, @ 0.25 hrs); 4/4 @ 0.5 hrs in test [1] (30 mg/kg, @ 0.5 hrs); 3/4 @ 1 hr in test [1] (30 mg/kg, @ 1 hr); 4/4 @ 2 hrs in test [1] (30 mg/kg, @ 2 hrs); 4/4 @ 4 hrs in test [1] (30 mg/kg, @ 4 hrs). The “Mouse Activity (number of mice active/total number of mice tested)” value is given as 2/3 @ 0.5 hrs in test [2] (setting [5]), 3/3 @ 4 hrs in test [2] (setting [6]), 1/1 @ 0.5 hrs in test [2] (setting [3]) and 1/1 @ 4 hrs in test [2] (setting [4]). In test [2] (dosage 30 mg/kg), the “Mouse Activity” value is recorded as “No activity”.

`CC1(C)OC2COC3(COS(=O)(=O)NCCC(=O)O)OC(C)(C)OC3C2O1` (stereo not drawn) [Compound 35]: in test [2] (setting [3]), the “Mouse Activity (number of mice active/total number of mice tested)” value was 1/1 @ 0.5 hrs. Besides, in test [2] (dosage 30, 100 mg/kg), the “Mouse Activity” value was “No Activity”.

On to `COC(=O)CCCNS(=O)(=O)OCC12OCC3OC(C)(C)OC3C1OC(C)(C)O2` (stereo not drawn) [Compound 8], for which the “Mouse Activity (number of mice active/total number of mice tested)” value in test [2] (setting [3]) is reported as 1/1 @ 0.5 hrs. The “Mouse Activity” value in test [2] (dosage 30, 100 mg/kg) is “No activity”.

As for `C=CCNS(=O)(=O)OC[C@@]12OC[C@H]3OC(C)(C)OC3[C@@H]1OC(C)(C)O2` (stereo partly drawn) [Compound 2, N-allyl-2,3:4,5-bis-O-(1-methylethylidene)-β-D-fructopyranose sulfamate], the ED50 in test [1] (@ 2 hrs) was 11.89 @ 2 hrs m/k. Besides, the “Rat Activity (oral) (number of rats active/total number of rats tested)” value in test [1] (8 mg/kg, @ 2 hrs) is 3/4 @ 2 hrs; in test [1] (8 mg/kg, @ 4 hrs), 2/4 @ 4 hrs; in test [1] (8 mg/kg, @ 6 hrs) it was 1/4 @ 6 hrs; in test [1] (8 mg/kg, @ 8 hrs), 1/4 @ 8 hrs; in test [1] (20 mg/kg, @ 0.5 hrs) it was 1/4 @ 0.5 hrs; in test [1] (20 mg/kg, @ 2 hrs), 2/2 @ 2 hrs. Also, the “Rat Activity (oral) (number of rats active/total number of rats tested)” value is 1/2 @ 4 hrs in test [1] (20 mg/kg, @ 4 hrs); 1/2 @ 6 hrs in test [1] (20 mg/kg, @ 6 hrs); 3/8 @ 1 hr in test [1] (200 mg/kg, @ 1 hr); 4/8 @ 2 hrs in test [1] (200 mg/kg, @ 2 hrs); 2/8 @ 4 hrs in test [1] (200 mg/kg, @ 4 hrs); 1/8 @ 6 hrs in test [1] (200 mg/kg, @ 6 hrs).
